The term melting point denotes the temperature of the solid-liquid transition.

`Cc1nc(-n2ccc(-c3ccccc3)cc2=O)sc1C(=O)NCc1ccccc1` [Example 1, N-benzyl-4-methyl-2-(2-oxo-4-phenylpyridin-1(2H)-yl)thiazole-5-carboxamide]: the melting point fell in the range of 235 to 237 °C.

`Cc1nc(-n2ccc(OCCC3CC3)cc2=O)sc1C(=O)NCc1ccccc1` [Example 1.3, N-Benzyl-2-(4-(2-cyclopropylethoxy)-2-oxopyridin-1(2H)-yl)-4-methylthiazole-5-carboxamide] yielded a melting point of 172 to 174 °C.

For the compound `Cc1nc(-n2ccc(OCCC3CC3)cc2=O)sc1C(=O)NCc1ccc(F)cc1` [Example 1.4, 2-(4-(2-Cyclopropylethoxy)-2-oxopyridin-1(2H)-yl)-N-(4-fluorobenzyl)-4-methylthiazole-5-carboxamide], the melting point is 172 to 174 °C.

`Cc1nc(-n2ccc(OCCC3CC3)cc2=O)sc1C(=O)NCc1cccnc1` [Example 1.5, 2-(4-(2-Cyclopropylethoxy)-2-oxopyridin-1(2H)-yl)-4-methyl-N-(pyridin-3-ylmethyl)thiazole-5-carboxamide] gave a melting point of 170 to 172 °C.

Consider `Cc1nc(-n2ccc(O)cc2=O)sc1C(=O)NCc1ccc(F)cc1` [Example 1.6, N-(4-Fluorobenzyl)-2-(4-hydroxy-2-oxopyridin-1(2H)-yl)-4-methylthiazole-5-carboxamide], for which the melting point was 280 to 282 °C.

Take `Cc1nc(-n2ccc(OCc3ccccc3)cc2=O)[nH]c1C(=O)NCc1cccnc1` [Example 1.8, 2-(4-(Benzyloxy)-2-oxopyridin-1(2H)-yl)-4-methyl-N-(pyridin-3-ylmethyl)-1H-imidazole-5-carboxamide]: the melting point lay in the range of 203 to 204 °C.

On to `Cc1nc(-n2ccc(OCc3ccccc3)cc2=O)n(C)c1C(=O)NCc1ccccc1` [Example 1.9, N-Benzyl-2-(4-(benzyloxy)-2-oxopyridin-1(2H)-yl)-1,4-dimethyl-1H-imidazole-5-carboxamide], for which the melting point was in the range of 232 to 233 °C.

As to `Cc1c(C(=O)NCc2ccccc2)nc(-n2ccc(OCc3ccccc3)cc2=O)n1C` [Example 1.10, N-Benzyl-2-(4-(benzyloxy)-2-oxopyridin-1(2H)-yl)-1,5-dimethyl-1H-imidazole-4-carboxamide], the melting point is 190 to 191 °C.

With `COc1ccn(-c2nc(C)c(C(=O)NCc3cccnc3)s2)c(=O)c1` [Example 1.11, 2-(4-Methoxy-2-oxopyridin-1(2H)-yl)-4-methyl-N-(pyridin-3-ylmethyl)thiazole-5-carboxamide], the melting point lay in the range of 200 to 202 °C.

In turn, `Cc1nc(-n2ccc(OCc3ccc(C(F)(F)F)o3)cc2=O)sc1C(=O)NCc1cccnc1` [Example 1.12, 4-Methyl-2-(2-oxo-4-((5-(trifluoromethyl)furan-2-yl)methoxy)pyridin-1(2H)-yl)-N-(pyridin-3-ylmethyl)thiazole-5-carboxamide] gave a melting point of 240 to 242 °C.

As to `Cc1nc(-n2ccc(OCc3ccc(F)cc3)cc2=O)sc1C(=O)NCc1cccnc1` [Example 1.13, 2-(4-(4-Fluorobenzyloxy)-2-oxopyridin-1(2H)-yl)-4-methyl-N-(pyridin-3-ylmethyl)thiazole-5-carboxamide], the melting point lay within 231 to 233 °C.

Regarding `Cc1nc(-n2ccc(OCc3ccc(F)cc3)cc2=O)sc1C(=O)NCc1ccc(F)cc1` [Example 1.14, N-(4-Fluorobenzyl)-2-(4-(4-fluorobenzyloxy)-2-oxopyridin-1(2H)-yl)-4-methylthiazole-5-carboxamide], the melting point was 249 to 251 °C.

As to `Cc1nc(-n2ccc(O)cc2=O)sc1C(=O)NCc1cccc(F)c1` [Example 1.15, N-(3-Fluorobenzyl)-2-(4-hydroxy-2-oxopyridin-1(2H)-yl)-4-methylthiazole-5-carboxamide], the melting point fell in the range of 250 to 252 °C.

`Cc1nc(-n2ccc(O)cc2=O)sc1C(=O)NCC1CC1` [Example 1.16, N-(Cyclopropylmethyl)-2-(4-hydroxy-2-oxopyridin-1(2H)-yl)-4-methylthiazole-5-carboxamide] gave a melting point of 240 to 242 °C.

`Cc1nc(-n2ccc(O)cc2=O)sc1C(=O)NCCC1CC1` [Example 1.17, N-(2-Cyclopropylethyl)-2-(4-hydroxy-2-oxopyridin-1(2H)-yl)-4-methylthiazole-5-carboxamide] showed a melting point of 234 to 236 °C.

For the compound `Cc1nc(-n2ccc(O)cc2=O)sc1C(=O)NCCc1ccc(F)cc1` [Example 1.18, N-(4-Fluorophenethyl)-2-(4-hydroxy-2-oxopyridin-1(2H)-yl)-4-methylthiazole-5-carboxamide], the melting point lay within 225 to 227 °C.

In turn, `Cc1nc(-n2ccc(O)cc2=O)sc1C(=O)NCc1ccc(F)c(F)c1` [Example 1.19, N-(3,4-Difluorobenzyl)-2-(4-hydroxy-2-oxopyridin-1(2H)-yl)-4-methylthiazole-5-carboxamide] showed a melting point of 294 to 296 °C.

The compound `Cc1nc(-n2ccc(O)cc2=O)sc1C(=O)NCc1ccncc1` [Example 1.20, 2-(4-Hydroxy-2-oxopyridin-1(2H)-yl)-4-methyl-N-(pyridin-4-ylmethyl)thiazole-5-carboxamide] showed a melting point of 275 to 278 °C.

`Cc1cc(-n2ccc(OCc3ccccc3)cc2=O)sc1C(=O)NCc1cccnc1` [Example 1.23, 5-(4-(Benzyloxy)-2-oxopyridin-1(2H)-yl)-3-methyl-N-(pyridin-3-ylmethyl)thiophene-2-carboxamide]: the melting point lay within 165 to 167 °C.

Compound `Cc1nc(-n2ccc(OCc3ccc(F)cc3)cc2=O)sc1C(=O)NCc1ccccc1` [Example 1.24, N-Benzyl-2-(4-(4-fluorobenzyloxy)-2-oxopyridin-1(2H)-yl)-4-methylthiazole-5-carboxamide] came in with a melting point of 243 to 245 °C.

`Cc1nc(-n2ccc(OCc3ccccc3)cc2=O)sc1C(=O)NCc1ccccc1` [Example 2, N-Benzyl-2-(4-(benzyloxy)-2-oxopyridin-1(2H)-yl)-4-methylthiazole-5-carboxamide] displayed a melting point of 219 to 220 °C.

Compound `Cc1nc(-n2ccc(N)cc2=O)sc1C(=O)NCc1ccccc1` [Example 3, 2-(4-Amino-2-oxopyridin-1(2H)-yl)-N-benzyl-4-methylthiazole-5-carboxamide] showed a melting point of 171 to 172 °C.

As to `Cc1nc(-n2ccnc(C)c2=O)sc1C(=O)NCc1ccccc1` [Example 3.1, N-Benzyl-4-methyl-2-(3-methyl-2-oxopyrazin-1(2H)-yl)thiazole-5-carboxamide], the melting point fell in the range of 186 to 187 °C.

As to `Cc1nc(-n2cc(OCc3ccccc3)ccc2=O)sc1C(=O)NCc1ccccc1` [Example 3.2, N-Benzyl-2-(5-(benzyloxy)-2-oxopyridin-1(2H)-yl)-4-methylthiazole-5-carboxamide], the melting point was in the range of 166 to 167 °C.

On to `Cc1nc(-n2cc(Cl)ccc2=O)sc1C(=O)NCc1ccccc1` [Example 3.3, N-Benzyl-2-(5-chloro-2-oxopyridin-1(2H)-yl)-4-methylthiazole-5-carboxamide], for which the melting point was in the range of 173 to 174 °C.

On to `Cc1nc(-n2cc(C(F)(F)F)ccc2=O)sc1C(=O)NCc1ccccc1` [Example 3.4, N-Benzyl-4-methyl-2-(2-oxo-5-(trifluoromethyl)pyridin-1(2H)-yl)thiazole-5-carboxamide], for which the melting point lay in the range of 148 to 149 °C.

The compound `Cc1nc(-n2ccc(C(F)(F)F)cc2=O)sc1C(=O)NCc1ccccc1` [Example 3.6, N-Benzyl-4-methyl-2-(2-oxo-4-(trifluoromethyl)pyridin-1(2H)-yl)thiazole-5-carboxamide] registered a melting point of 197 to 198 °C.

Consider `Cc1nc(-n2cccc(OCc3ccccc3)c2=O)sc1C(=O)NCc1ccccc1` [Example 3.7, N-Benzyl-2-(3-(benzyloxy)-2-oxopyridin-1(2H)-yl)-4-methylthiazole-5-carboxamide], for which the melting point lay within 198 to 201 °C.

In the case of `Cc1nc(-n2ccc3c(OCc4ccccc4)cccc3c2=O)sc1C(=O)NCc1ccccc1` [Example 3.8, N-Benzyl-2-(5-(benzyloxy)-1-oxoisoquinolin-2(1H)-yl)-4-methylthiazole-5-carboxamide], the melting point was 225 to 226 °C.

As to `Cc1nc(-n2c(=O)ccc3cc(OCc4ccccc4)ccc32)sc1C(=O)NCc1ccccc1` [Example 3.9, N-Benzyl-2-(6-(benzyloxy)-2-oxoquinolin-1(2H)-yl)-4-methylthiazole-5-carboxamide], the melting point lay within 213 to 216 °C.

The compound `Cc1nc(-n2ccccc2=O)sc1C(=O)NCc1ccccc1` [Example 3.10, N-Benzyl-4-methyl-2-(2-oxopyridin-1(2H)-yl)thiazole-5-carboxamide] showed a melting point of 180 to 182 °C.

On to `Cc1nc(-n2ccc(OCc3ccccc3)cc2=O)sc1C(=O)NCc1ccc(F)cc1` [Example 3.12, 2-(4-(Benzyloxy)-2-oxopyridin-1(2H)-yl)-N-(4-fluorobenzyl)-4-methylthiazole-5-carboxamide], for which the melting point lay in the range of 223 to 225 °C.

`Cc1nc(-n2ccc(C(=O)Nc3ccccc3)cc2=O)sc1C(=O)NCc1ccccc1` [Example 3.13, N-Benzyl-4-methyl-2-(2-oxo-4-(phenylcarbamoyl)pyridin-1(2H)-yl)thiazole-5-carboxamide] showed a melting point of 243 to 245 °C.

`Cc1nc(-n2cccc(C(=O)Nc3ccccc3)c2=O)sc1C(=O)NCc1ccccc1` [Example 3.14, N-Benzyl-4-methyl-2-(2-oxo-3-(phenylcarbamoyl)pyridin-1(2H)-yl)thiazole-5-carboxamide]: the melting point was 225 to 227 °C.

Regarding `Cc1nc(-n2cc(C(=O)Nc3ccccc3)ccc2=O)sc1C(=O)NCc1ccccc1` [Example 3.15, N-Benzyl-4-methyl-2-(2-oxo-5-(phenylcarbamoyl)pyridin-1(2H)-yl)thiazole-5-carboxamide], the melting point lay in the range of 223 to 225 °C.

Compound `Cc1nc(-n2ccccc2=O)sc1C(=O)NCc1cccnc1` [Example 3.16, 4-Methyl-2-(2-oxopyridin-1(2H)-yl)-N-(pyridin-3-ylmethyl)thiazole-5-carboxamide] came in with a melting point of 218 to 220 °C.

The compound `Cc1nc(-n2ccc(OCc3ccccc3)cc2=O)sc1C(=O)NCc1ccc(F)c(F)c1` [Example 3.17, 2-(4-(Benzyloxy)-2-oxopyridin-1(2H)-yl)-N-(3,4-difluorobenzyl)-4-methylthiazole-5-carboxamide] registered a melting point of 225 to 227 °C.

The values are drawn from patent US8501746B2, “Organic compounds” (Xenon Pharmaceuticals Inc., priority 2006, dated 2013).
